Columns and labels:
STAT6 = biological target: T1, STAT6 (Homo sapiens, UniProt P42226); assay: STAT6 Reporter Luciferase Assay (IL-13 stimulated HaCaT keratinocyte NanoLuc reporter cells); assay type: cell-based; conditions: STAT6 NanoLuc luciferase reporter, IL-13 stimulated HaCaT keratinocyte cells; read-out: Reporter EC50
T1 construct: stably transfected HaCaT keratinocyte cell line, which expresses NanoLuc luciferase reporter gene under the transcriptional control of the STAT6 responsive promoter; endogenous in cells; host or cells: HaCaT keratinocyte reporter cell line (stably transfected with a NanoLuc reporter)
T1 sequence (P42226 1-847): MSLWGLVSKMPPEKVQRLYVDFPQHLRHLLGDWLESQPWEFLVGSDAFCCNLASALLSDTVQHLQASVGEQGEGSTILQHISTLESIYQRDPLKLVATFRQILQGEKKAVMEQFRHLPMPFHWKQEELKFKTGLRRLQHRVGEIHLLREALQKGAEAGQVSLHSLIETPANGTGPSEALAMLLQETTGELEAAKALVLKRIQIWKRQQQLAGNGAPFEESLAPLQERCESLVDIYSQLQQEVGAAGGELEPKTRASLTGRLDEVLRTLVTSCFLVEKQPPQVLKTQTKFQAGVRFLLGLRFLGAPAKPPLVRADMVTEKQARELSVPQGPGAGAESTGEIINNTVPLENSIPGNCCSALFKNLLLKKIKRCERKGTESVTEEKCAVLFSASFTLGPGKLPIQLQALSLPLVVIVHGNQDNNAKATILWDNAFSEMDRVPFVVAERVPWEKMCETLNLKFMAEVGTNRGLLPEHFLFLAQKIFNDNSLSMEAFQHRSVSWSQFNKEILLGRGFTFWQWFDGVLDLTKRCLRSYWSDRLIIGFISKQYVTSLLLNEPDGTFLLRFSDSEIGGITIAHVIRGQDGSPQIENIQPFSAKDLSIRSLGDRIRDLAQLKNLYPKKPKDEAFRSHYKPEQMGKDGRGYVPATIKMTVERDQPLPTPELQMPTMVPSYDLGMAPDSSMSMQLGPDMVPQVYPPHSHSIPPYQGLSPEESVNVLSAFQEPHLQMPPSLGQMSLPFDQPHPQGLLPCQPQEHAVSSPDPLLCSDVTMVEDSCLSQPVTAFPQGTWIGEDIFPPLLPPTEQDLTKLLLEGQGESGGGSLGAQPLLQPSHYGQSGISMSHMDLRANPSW
How it was run: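 HaCaT cells stably carrying a NanoLuc reporter driven by the STAT6-responsive IL-13Ra2 promoter were preincubated with compounds for 2 h at 37 °C in 2% FBS medium. Cells were then stimulated with 0.12 nM IL-13 for 4 h, and luminescence was read after Nano-Glo substrate. Compounds ran as 11-point 4-fold dilutions in duplicate.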

[1] = test system: CCL17 secretion in peripheral human whole blood; assay: Human Whole Blood (HWB) CCL17 TR-FRET Assay (IL-13 stimulated CCL17 secretion); assay type: cell-based; conditions: inhibition of CCL17 secretion in human whole blood, 10 ng/mL IL13, 48 hours
How it was run: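 Measured here: CCL17 in serum by TR-FRET (665/615 nm) after overnight (16 h) room-temperature detection. The blood, heparinized and compound-treated for 2 h, received IL-13 at 10 ng/mL final and was cultured 48 h at 37 °C.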

Compound	EC50 (STAT6) [nM]	IC50 [1] [nM]	IC50 ([1]; Homo sapiens, 48 h) [nM]
CC1CN(c2ccc(C(=O)N(C)C)cn2)Cc2c(C(=O)NCc3ccc(NC(=O)N(C)C)cc3)nn(C)c21 (single isomer, unassigned) [Example 7, rel-(R or S)-5-(5-(Dimethylcarbamoyl)pyridin-2-yl)-N-(4-(3,3-dimethylureido)benzyl)-1,7-dimethyl-4,5,6,7-tetrahydro-1H-pyrazolo[4,3-c]pyridine-3-carboxamide]	33	196	
CC1CN(c2ccc(C(=O)N(C)C)cn2)Cc2c(C(=O)NCc3ccc(NC(=O)N(C)C)cc3)nn(C)c21 (single isomer, unassigned) [Example 8, rel-(R or S)-5-(5-(Dimethylcarbamoyl)pyridin-2-yl)-N-(4-(3,3-dimethylureido)benzyl)-1,7-dimethyl-4,5,6,7-tetrahydro-1H-pyrazolo[4,3-c]pyridine-3-carboxamide]	3	14	
Cc1nc(C(=O)NCc2ccc(NC(=O)N(C)C)cc2)c2n1C(C)CN(c1ccc(C(=O)N(C)C)cn1)C2 (single isomer, unassigned) [Example 53, rel-(R or S)-7-(5-(dimethylcarbamoyl)pyridin-2-yl)-N-(4-(3,3-dimethylureido)benzyl)-3,5-dimethyl-5,6,7,8-tetrahydroimidazo[1,5-a]pyrazine-1-carboxamide]	8	19	
Cc1nc(C(=O)NCc2ccc(NC(=O)N(C)C)cc2)c2n1C(C)CN(c1ccc(C(=O)N(C)C)cn1)C2 (single isomer, unassigned) [Example 54, rel-(R or S)-7-(5-(dimethylcarbamoyl)pyridin-2-yl)-N-(4-(3,3-dimethylureido)benzyl)-3,5-dimethyl-5,6,7,8-tetrahydroimidazo[1,5-a]pyrazine-1-carboxamide]	120	332	
CCC1CN(c2ccc(C(=O)N(C)C)cn2)Cc2c(C(=O)NCc3ccc(NC(=O)N(C)C)cc3)nn(C)c21 (single isomer, unassigned) [Example 58, rel-(R or S)-5-(5-(Dimethylcarbamoyl)pyridin-2-yl)-N-(4-(3,3-dimethylureido)benzyl)-7-ethyl-1-methyl-4,5,6,7-tetrahydro-1H-pyrazolo[4,3-c]pyridine-3-carboxamide]	24	170	
CCC1CN(c2ccc(C(=O)N(C)C)cn2)Cc2c(C(=O)NCc3ccc(NC(=O)N(C)C)cc3)n[nH]c21 (single isomer, unassigned) [Example 82, rel-(R or S)-5-(5-(dimethylcarbamoyl)pyridin-2-yl)-N-(4-(3,3-dimethylureido)benzyl)-7-ethyl-4,5,6,7-tetrahydro-1H-pyrazolo[4,3-c]pyridine-3-carboxamide]	101	112	
CCC1CN(c2ccc(C(=O)N(C)C)cn2)Cc2c(C(=O)NCc3ccc(NC(=O)N(C)C)cc3)n[nH]c21 (single isomer, unassigned) [Example 83, rel-(R or S)-5-(5-(dimethylcarbamoyl)pyridin-2-yl)-N-(4-(3,3-dimethylureido)benzyl)-7-ethyl-4,5,6,7-tetrahydro-1H-pyrazolo[4,3-c]pyridine-3-carboxamide]	86	278	
CCn1nc(C(=O)NCc2ccc(NC(=O)N(C)C)cc2)c2c1C[C@@H](C)N(c1ccc(C(=O)N(C)C)cn1)C2 (single isomer, unassigned) [Example 113]	17		161
CCC1Cc2c(c(C(=O)NCc3ccc(NC(=O)N(C)C)cc3)nn2CC)CN1c1ccc(C(=O)N(C)C)cn1 (single isomer, unassigned) [Example 118, rel-(R or S)-5-(5-(dimethylcarbamoyl)pyridin-2-yl)-N-(4-(3,3-dimethylureido)benzyl)-1,6-diethyl-4,5,6,7-tetrahydro-1H-pyrazolo[4,3-c]pyridine-3-carboxamide]	25	116	
C[C@@H]1Cc2c(c(C(=O)NCc3ccc(NC(=O)N(C)C)cc3)nn2C)CN1c1ccc(-c2nccn2C)cn1 (single isomer, unassigned) [Example 122]	24		900
CC(C)n1nc(C(=O)NCc2ccc(-c3ncc[nH]3)cc2)c2c1C(C(F)(F)F)CN(c1ccc(C(=O)N(C)C)cn1)C2 (single isomer, unassigned) [Example 123, rel-(R or S)-N-(4-(1H-imidazol-2-yl)benzyl)-5-(5-(dimethylcarbamoyl)pyridin-2-yl)-1-isopropyl-7-(trifluoromethyl)-4,5,6,7-tetrahydro-1H-pyrazolo[4,3-c]pyridine-3-carboxamide]	41	1010	
CCC1CN(c2ccc(C(=O)N(C)C)cn2)Cc2c(C(=O)NCc3ccc(NC(=O)N(C)C)cc3)nc(C)n21 (single isomer, unassigned) [Example 131, rel-(R or S)-7-(5-(dimethylcarbamoyl)pyridin-2-yl)-N-(4-(3,3-dimethylureido)benzyl)-5-ethyl-3-methyl-5,6,7,8-tetrahydroimidazo[1,5-a]pyrazine-1-carboxamide]	103		256

The remaining lines, values ahead:

EC50 (STAT6) [nM]	IC50 [1] [nM]	IC50 ([1]; Homo sapiens, 48 h) [nM]	Compound
14		105	CCn1nc(C(=O)NCc2ccc(NC(=O)N(C)C)cc2)c2c1[C@H](C)CN(c1ccc(C(=O)N(C)C)cn1)C2 (single isomer, unassigned) [Example 63]
3	14		CCC1CN(c2ccc(C(=O)N(C)C)cn2)Cc2c(C(=O)NCc3ccc(NC(=O)N(C)C)cc3)nn(C)c21 (single isomer, unassigned) [Example 78, rel-(R or S)-5-(5-(Dimethylcarbamoyl)pyridin-2-yl)-N-(4-(3,3-dimethylureido)benzyl)-7-ethyl-1-methyl-4,5,6,7-tetrahydro-1H-pyrazolo[4,3-c]pyridine-3-carboxamide]
15		118	CC(C1CC1)n1nc(C(=O)NCc2ccc(NC(=O)N(C)C)cc2)c2c1CCN(c1ccc(C(=O)N(C)C)cn1)C2 (single isomer, unassigned) [Example 87, rel-(R or S)-1-(1-cyclopropylethyl)-5-(5-(dimethylcarbamoyl)pyridin-2-yl)-N-(4-(3,3-dimethylureido)benzyl)-4,5,6,7-tetrahydro-1H-pyrazolo[4,3-c]pyridine-3-carboxamide]
3		13	CCn1nc(C(=O)NCc2ccc(NC(=O)N(C)C)cc2)c2c1C[C@H](C)N(c1ccc(C(=O)N(C)C)cn1)C2 (single isomer, unassigned) [Example 111]
15		78	CC(C)n1nc(C(=O)NCc2ccc(NC(=O)N(C)C)cc2)c2c1[C@H](C)CN(c1ccc(C(=O)N(C)C)cn1)C2 (single isomer, unassigned) [Example 112]
3	13		CCC1Cc2c(c(C(=O)NCc3ccc(NC(=O)N(C)C)cc3)nn2CC)CN1c1ccc(C(=O)N(C)C)cn1 (single isomer, unassigned) [Example 117, rel-(R or S)-5-(5-(dimethylcarbamoyl)pyridin-2-yl)-N-(4-(3,3-dimethylureido)benzyl)-1,6-diethyl-4,5,6,7-tetrahydro-1H-pyrazolo[4,3-c]pyridine-3-carboxamide]
0.3		4	C[C@H]1CN(c2ccc(C(=O)N(C)C)cn2)Cc2c(C(=O)NCc3ccc(NC(=O)N(C)C)cc3)nn(C3CCC3)c21 (single isomer, unassigned) [Example 119]
0.3	5		CC(C)n1nc(C(=O)NCc2ccc(-c3ncc[nH]3)cc2)c2c1C(C(F)(F)F)CN(c1ccc(C(=O)N(C)C)cn1)C2 (single isomer, unassigned) [Example 124, rel-(R or S)-N-(4-(1H-imidazol-2-yl)benzyl)-5-(5-(dimethylcarbamoyl)pyridin-2-yl)-1-isopropyl-7-(trifluoromethyl)-4,5,6,7-tetrahydro-1H-pyrazolo[4,3-c]pyridine-3-carboxamide]
0.3		3	CC(C)n1nc(C(=O)NCc2ccc(NC(=O)N(C)C)cc2)c2c1[C@@H](C)CN(c1ccc(C(=O)N(C)C)cn1)C2 (single isomer, unassigned) [Example 128]

— patent publication US20250320213A1, “Nitrogen-Containing Heterocyclic Compounds” (Pfizer Inc., priority 2024, published 2025)
